Experimental data: patent publication US10000521B2 (priority 2013, dated 2018)

Experiments:
Assay type in all cases: cell-based
HCV replicon = test: IC50 assay with HCV luciferase replicon cell-line; details: Hepatitis C virus, Huh-7; Huh7 cell line containing HCV replicon with luciferase reporter, 48 h
Excerpt: Plating Cells: The cells used in these assays were a liver-derived Huh7 cell line containing an HCV replicon bearing a luciferase reporter gene. The Huh7 cell-line can be obtained from various sources including the Japanese Collection of Research Bioresources (JCRB), Osaka, Japan. The Huh7 cell line containing an HCV replicon bearing a luciferase reporter gene can be prepared essentially as described by Vrolijk J M, et al. (J Virol Methods. (2003) 110(2):201-9). Cells were passaged when they reached about 70% confluency.
These 0.5 mM dilutions were then used to further serially dilute the compounds in DMEM+2% FBS+0.5% DMSO to keep the concentration of DMSO in each condition identical.
The Glo Lysis Buffer and the Bright Glow reagent was allowed to warm to room temperature for about 30 min in the dark. […] The media was removed from cells, and the cells were gently washed with about 100 μL of phosphate buffered saline (PBS). […] It should be noted that luciferin has a half-life of approximately 30 min at room temperature after it is added to the plate. […] The data was saved and used to calculate the percent inhibition of luciferase activity at each drug concentration. […] Curve equation: (m1−m2)/(1+(x/m3)^m4); m1=100; m2=0.01; m3=0.01; m4=0.01; the equation is: […]

Huh7 cells [1] = test: TC50 MTS cell viability assay with Huh7 cells (48 h); details: Homo sapiens, Huh-7
Excerpt: Plating Cells: Huh7 cells (a hepatocellular carcinoma cell-line; these cells can be obtained from the Japanese Collection of Research Bioresources (JCRB), Osaka, Japan) were used to determine the TC50 for representative compounds of the present invention. Briefly, Huh7 cells were passaged when they reached about 70% confluency. The cells were counted using a hemocytometer following dilution of the cells to about 0.5×10^5 cells per mL in DMEM with 10% fetal bovine serum (FBS). The cells were plated in a clear 96-well plate (about 5,000 cells in 100 μL per well). The cells were allowed to attach for about 24 hours at 37° C.
Treating of the cells: The DMEM media without phenol red containing 2% FBS was pre-warmed to 37° C. […] Following dilution, the final DMSO concentration was about 0.5% (v/v). […] The plates were then returned to the incubator and incubated with the cells for 48 h at 37° C.
(§1) The 96-well plate with cells incubated with test compound was removed from the 37° C. incubator. The appropriate amounts of the MTS and PMS reagents were removed from the kit and mixed well. The reagents were maintained in the dark due to their light sensitivity. […] The solutions were mixed completely in the wells prior to each reading.

Huh7 cells [2] = test: TC50 assay with inhibition of ENT1, Huh7 cells; details: Homo sapiens, Huh-7, 48 h, Huh7 cells (48 h)
Description: Plating Cells: Huh7 cells or PK9 cells were seeded in 96-well plates at a density of 5,000 cells/well or 2,500 cells/well, respectively, and the plates were incubated at 37° C. for 24 h to allow for cell attachment.
Treatment with equilibrative nucleoside transporter 1 (ENT1) Inhibitor: The media was then removed from the plates and replaced with media containing 2% FBS, 0.5% DMSO, and either 10 μM dipyramidole or 10 μM S-(4-nitrobenzyl)-6-thioinosine (NBTI).
Treating with Control & Compound 1: After incubation with the ENT1 inhibitor, the cells were treated with each compound at final concentrations ranging from 500 μM to 0 μM in triplicate in media containing 2% FBS, 0.5% DMSO, and either 10 μM dipyridamole or 10 μM NBTI.

[3] = TC50 assay in different human cell lines (96 h), HEK293; details: HEK293 cells, about 96 h, MTS assay
Description: as §1
Plating Cells: Huh7, HEPG2, HEK293, MCF-7, or BxPC3 cells (which can be obtained from American Type Culture Collection, ATCC) were passaged when they were about 70% confluent. […] The cells following passaging were allowed to attach for about 24 hours at 37° C.
The plates were then returned to the incubator, and cells incubated for about 96 h at 37° C.
MTS Assay: Assay was carried out as described above.

O=C(Nc1ccn(C2O[C@H](CO)[C@@H](O)C2(F)F)c(=O)n1)c1ccc2c(c1)OCO2 (stereo partly drawn) [Compound 1, N-(1-((4R,5R)-3,3-difluoro-4-hydroxy-5-(hydroxymethyl)tetrahydrofuran-2-yl)-2-oxo-1,2-dihydropyrimidin-4-yl)benzo[d][1,3]dioxole-5-carboxamide]
IC50 (HCV replicon): 0.06 ± 0.008 µM | CC50 (Huh7 cells [1]): 473 ± 74 µM | CC50 (Huh7 cells [2]; 10 μM NBTI): 440 ± 190 µM | CC50 (Huh7 cells [2]; 10 μM dipyridamole): 410 ± 110 µM | CC50 (Huh7 cells [2]; ENT1 inhibitor: None): 473 ± 74 µM | CC50 at 96 h [3]: 4.09 µM
